The text below walks through data of patent US5422341A, “Motilin-like polypeptides with gastrointestinal motor stimulating activity” (Ohmeda Pharmaceutical Products Division Inc., priority 1993, dated 1995).

Structures can show the parent of a compound that is named as a salt. Square brackets hold non-standard residues; d marks the D form. Peptide text beside a SMILES is read from it. * marks the point of attachment. X1 = C[N+](C)(C)[C@@H](Cc1ccccc1)C(=O)*; X4 = CCN(CC)[C@@H](Cc1ccccc1)C(=O)*; NMeF = CN[C@@H](Cc1ccccc1)C(=O)O; dOrn = NCCC[C@@H](N)C(=O)O

One experiment deals with T1, motilin receptor (Oryctolagus cuniculus, UniProt G1T803).
T1 construct: from tissue; host or cells: rabbit antral smooth muscle membranes
T1 sequence (G1T803 1-400): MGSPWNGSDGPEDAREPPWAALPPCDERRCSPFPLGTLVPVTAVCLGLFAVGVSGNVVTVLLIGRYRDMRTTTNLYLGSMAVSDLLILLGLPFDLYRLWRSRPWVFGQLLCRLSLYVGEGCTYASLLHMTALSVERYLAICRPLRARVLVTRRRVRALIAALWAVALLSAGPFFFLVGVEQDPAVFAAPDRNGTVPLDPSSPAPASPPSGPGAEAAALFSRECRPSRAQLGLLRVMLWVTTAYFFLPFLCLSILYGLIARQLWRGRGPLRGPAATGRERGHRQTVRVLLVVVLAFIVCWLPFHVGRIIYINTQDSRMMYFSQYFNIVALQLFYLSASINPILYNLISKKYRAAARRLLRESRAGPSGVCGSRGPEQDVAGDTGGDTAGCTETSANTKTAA
The experiment can be described thus: Determination of motilin receptor binding affinity (displacement of [125I-Tyr7, Nle13]motilin(porcine)). More on the design: species or system rabbit. Particulars: negative logarithm of the concentration displacing 50% of [125I-Tyr7, Nle13]motilin(porcine) from rabbit antral smooth muscle membranes; read-out: pIC50 (converted). On the procedure:
The motilin receptor binding affinity of the peptides of this invention was determined by using the general procedure of Bormans, Peelers and Vantrappen, Regul. […] Fitting was performed using the iterative least-squares procedure of the SAS-software package (SAS Institute, Inc., Cary, N.C., USA).
For orientation: Displacement assays read how much labelled ligand stays bound in the presence of the test substance.

Experiment [1] concerns the target segments of rabbit duodenum (Oryctolagus cuniculus, UniProt G1T803). Kind of experiment: Rabbit duodenal smooth muscle strip tissue bath assay. Particulars: negative logarithm of the dose giving 50% of the maximal response to motilin; isotonic contraction of rabbit duodenum segments. The experiment is classed as cell-based. The method, then: The contractile response of segments of rabbit duodenum was determined isotonically in the tissue bath according to the procedure of Depoortere et at., J. Gastrointestinal Motility, 1, 150-159 (1989). The experimental protocol consisted of an equilibration period of 1 hour; a challenge with 10^-4 M acetylcholine followed by a wash-out period; a cumulative dose-response curve of a compound with, at the end, the addition of 10^-7 M motilin; and finally 10^-4 M acetylcholine. If the final response to 10^-4 M acetylcholine differed by more than 5% from the initial response, the results were discarded. The compounds were tested in the concentration range 10^-11 to 10^-4 M. The point corresponding to 50% of the maximal response to motilin (Emax) was determined by fitting the equation E=Emax (1+EC50 /[L]) through the data points. […] The dose giving 50% of the response is expressed using its negative logarithm (pEC50).

For experiment [2], the system named is canine gastrointestinal tract. Kind of experiment: Contractile activity in the canine gastrointestinal tract. Conditions: anesthetized dogs, intra-arterial injection to a duodenal segment; amount giving 50% of the calibration response to field stimulation. The experiment is classed as in vivo, dog. The method, then:
Mongrel dogs of either sex were anesthetized with sodium pentobarbital 65 mg/kg intravenously. A mid-line incision was made in the abdomen. A duodenal segment was located, the terminal arteries to that segment were identified, and the closest possible artery of the appropriate size was rubbed clean of fat and fascia. A needle of suitable diameter was bent at an angle and the tip inserted in the cleaned artery. The needle was held in position in the artery for approximately 30 seconds until vascular spasm has relaxed and then a catheter assembly was inserted into the artery and tied into position with 000 silk sutures. The fine polyethylene catheter (10-15 cm) was cut to a point at one end with a needle inserted at the other end. The hub of the needle was fitted with a 3-way stopcock and the catheter assembly was filled with heparinized Krebs Ringer bicarbonate containing 10 mM glucose. A bolus of Krebs (free of air) was injected into the arterial catheter and the distribution of blanching in the segment noted. If the area was too large, collateral arteries may be tied off as long as circulation to the area was maintained. A Bass type strain gauge was then sutured to the serosa, and oriented so that circular muscle contractions can be recorded on a Beckman R611 dynograph. Silver wire electrodes were inserted subserosally on either side of the strain gauge and were connected through stimulus isolation units to a Grass S88 electrical stimulator. Electrical field stimulation was applied at 40 V 0.5 ms and 5 pps and the amplitude of the pen recorder was set to contain the contractile response.
All peptides to be injected were dissolved in Krebs and serial dilutions were prepared so that for any concentration the maximum volume to be injected was 1 ml. All solutions except stock Krebs were held on ice for the day of the experiment and discarded at the end of the day. For determination of a dose-response curve, the site was first injected with a bolus of approximately 1 ml of heparinized Krebs to provide a flush control. Peptide agonists (in volumes of 1 ml flushed with 1 ml of Krebs) were injected in logarithmic increments until a response which was maximal in amplitude was obtained. The injection site was then flushed with Krebs containing 0.1% BSA to displace any peptide remaining in the arterial line. For peptides acting at the motilin receptor, care was taken not to inject supramaximal doses as these will induce tachyphylaxis. Therefore, as responses become apparent, 0.3 or 0.5 log unit increments were used. A site was used for a dose-response determination only every 1/2 to 1 hour.
The amplitude of the calibration response to field stimulation in each site was measured and used as 100% for that site. The amplitude of the response to the agonist at each dose was determined, calculated as a % of the calibration response and plotted against the concentration. The ED50 of the response represents the amount of agonist required to produce a response which was 50% of the calibration response.

segments of rabbit duodenum, sequence (G1T803 1-400): as above

Take `CC[C@H](C)[C@H](NC(=O)[C@H](C)NC(=O)[C@@H](NC(=O)[C@H](Cc1ccccc1)NC)C(C)C)C(=O)N[C@@H](Cc1ccccc1)C(=O)N[C@H](C(=O)N[C@@H](Cc1ccc(O)cc1)C(=O)NCC(=O)N[C@@H](CCC(=O)O)C(=O)N[C@@H](CC(C)C)C(=O)N[C@@H](C)C(=O)N[C@H](CCCNC(=N)N)C(=O)N[C@@H](CC(C)C)C(=O)N[C@@H](CCCCN)C(N)=O)[C@@H](C)O` (H-[NMeF]VAIFTYGELA[dR]LK-NH2): the IC50 on motilin receptor is 0.724 nM. The molecule further displayed a pEC50 in experiment [1] of 7.77. The ED50 in experiment [2] was 0.001 nmol.
Taken in the same sequence, the figures for `CC[C@H](C)[C@H](NC(=O)[C@H](C)NC(=O)[C@@H](NC(=O)[C@H](Cc1ccccc1)NC)C(C)C)C(=O)N[C@@H](Cc1ccccc1)C(=O)N[C@H](C(=O)N[C@@H](Cc1ccc(O)cc1)C(=O)NCC(=O)N[C@@H](CCC(=O)O)C(=O)N[C@@H](CC(C)C)C(=O)N[C@@H](CCC(N)=O)C(=O)N[C@H](CCCNC(=N)N)C(=O)N[C@@H](CC(C)C)C(=O)N[C@@H](CCCCN)C(N)=O)[C@@H](C)O` (H-[NMeF]VAIFTYGELQ[dR]LK-NH2) were 0.631 nM, 7.72 and 0.06 nmol.
`CC[C@H](C)[C@H](NC(=O)[C@H](C)NC(=O)[C@@H](NC(=O)[C@H](Cc1ccccc1)NC)C(C)C)C(=O)N[C@@H](Cc1ccccc1)C(=O)N[C@H](C(=O)N[C@@H](Cc1ccc(O)cc1)C(=O)NCC(=O)N[C@@H](CCC(=O)O)C(=O)N[C@@H](CC(C)C)C(=O)N[C@@H](CCC(N)=O)C(=O)N[C@H](CCCNC(=N)N)C(=O)N[C@@H](CC(C)C)C(=O)N[C@@H](CCC(N)=O)C(N)=O)[C@@H](C)O` (H-[NMeF]VAIFTYGELQ[dR]LQ-NH2): in experiment [2], the ED50 came out at 0.024 nmol.
Still for that read-out and setting: for `CC[C@H](C)[C@H](NC(=O)[C@@H]1CCCN1C(=O)[C@@H](NC(=O)[C@H](Cc1ccccc1)NC)C(C)C)C(=O)N[C@@H](Cc1ccccc1)C(=O)N[C@H](C(=O)N[C@@H](Cc1ccc(O)cc1)C(=O)NCC(=O)N[C@@H](CCC(=O)O)C(=O)N[C@@H](CC(C)C)C(=O)N[C@@H](C)C(=O)N[C@H](CCCNC(=N)N)C(=O)N[C@@H](CC(C)C)C(=O)N[C@@H](CCC(N)=O)C(N)=O)[C@@H](C)O` (H-[NMeF]VPIFTYGELA[dR]LQ-NH2) the value was 0.0018 nmol.
In experiment [2], `CC[C@H](C)[C@H](NC(=O)[C@@H]1CCCN1C(=O)[C@@H](NC(=O)[C@H](Cc1ccccc1)NC)C(C)C)C(=O)N[C@@H](Cc1ccccc1)C(=O)N[C@H](C(=O)N[C@@H](Cc1ccc(O)cc1)C(=O)NCC(=O)N[C@@H](CCC(=O)O)C(=O)N[C@@H](CC(C)C)C(=O)N[C@@H](CCC(N)=O)C(=O)N[C@H](CCCNC(=N)N)C(=O)N[C@@H](CC(C)C)C(=O)N[C@H](CCC(N)=O)C(N)=O)[C@@H](C)O` (H-[NMeF]VPIFTYGELQ[dR]L[dQ]-NH2) registered an ED50 of 0.0004 nmol.
Take `CC[C@H](C)[C@H](NC(=O)[C@@H]1CCCN1C(=O)[C@@H](NC(=O)[C@@H](N)Cc1ccccc1)C(C)C)C(=O)N[C@@H](Cc1ccccc1)C(=O)N[C@H](C(=O)N[C@@H](Cc1ccc(O)cc1)C(=O)NCC(=O)N[C@@H](CCC(=O)O)C(=O)N[C@@H](CC(C)C)C(=O)N[C@@H](CCC(N)=O)C(=O)N[C@H](CCCNC(=N)N)C(=O)N[C@@H](CC(C)C)C(=O)N[C@@H](CCC(N)=O)C(=O)O)[C@@H](C)O` [[D-Arg^13, Leu^13]pMOT(1-14), [12-D-Arginine, 13-leucine]motilin-(1-14)-peptide (Porcine) Bis-trifiuoroacetate Salt] (H-FVPIFTYGELQ[dR]LQ-OH): at motilin receptor, the IC50 is 0.977 nM. Also, the pEC50 in experiment [1] is 7.74.
Taken in the same sequence, the figures for `CC[C@H](C)[C@H](NC(=O)[C@@H]1CCCN1C(=O)[C@@H](NC(=O)[C@@H](N)Cc1ccccc1)C(C)C)C(=O)N[C@@H](Cc1ccccc1)C(=O)N[C@H](C(=O)N[C@@H](Cc1ccc(O)cc1)C(=O)NCC(=O)N[C@@H](CCC(=O)O)C(=O)N[C@@H](CC(C)C)C(=O)N[C@@H](CCC(N)=O)C(=O)N[C@H](CC(N)=O)C(=O)N[C@@H](CC(C)C)C(=O)N[C@@H](CCC(N)=O)C(=O)O)[C@@H](C)O` [[D-Asn^12, Leu^13]pMOT(1-14)] (H-FVPIFTYGELQ[dN]LQ-OH) were 7.59 nM and 6.82.
Taken in the same sequence, the figures for `CC[C@H](C)[C@H](NC(=O)[C@@H]1CCCN1C(=O)[C@@H](NC(=O)[C@@H](N)Cc1ccccc1)C(C)C)C(=O)N[C@@H](Cc1ccccc1)C(=O)N[C@H](C(=O)N[C@@H](Cc1ccc(O)cc1)C(=O)NCC(=O)N[C@@H](CCC(=O)O)C(=O)N[C@@H](CC(C)C)C(=O)N[C@@H](CCC(N)=O)C(=O)N[C@H](CCC(N)=O)C(=O)N[C@@H](CC(C)C)C(=O)N[C@@H](CCC(N)=O)C(=O)O)[C@@H](C)O` [[D-Gln^12, Leu^13]pMOT(1-14)] (H-FVPIFTYGELQ[dQ]LQ-OH) were 5.62 nM and 7.06.
On the same counts, the results for `CC[C@H](C)[C@H](NC(=O)[C@@H]1CCCN1C(=O)[C@@H](NC(=O)[C@@H](N)Cc1ccccc1)C(C)C)C(=O)N[C@@H](Cc1ccccc1)C(=O)N[C@H](C(=O)N[C@@H](Cc1ccc(O)cc1)C(=O)NCC(=O)N[C@@H](CCC(=O)O)C(=O)N[C@@H](CC(C)C)C(=O)N[C@@H](CCC(N)=O)C(=O)N[C@H](CCCN)C(=O)N[C@@H](CC(C)C)C(=O)N[C@@H](CCC(N)=O)C(=O)O)[C@@H](C)O` [[D-Orn^12, Leu^13]pMOT(1-14)] (H-FVPIFTYGELQ[dOrn]LQ-OH) are 4.27 nM and 6.83.
As to `CC[C@H](C)[C@H](NC(=O)[C@@H]1CCCN1C(=O)[C@@H](NC(=O)[C@H](Cc1ccccc1)N(CC)CC)C(C)C)C(=O)N[C@@H](Cc1ccccc1)C(=O)N[C@H](C(=O)N[C@@H](Cc1ccc(O)cc1)C(=O)NCC(=O)N[C@@H](CCC(=O)O)C(=O)N[C@@H](CC(C)C)C(=O)N[C@@H](CCC(N)=O)C(=O)N[C@@H](CCCNC(=N)N)C(=O)N[C@@H](CC(C)C)C(=O)N[C@@H](CCC(N)=O)C(N)=O)[C@@H](C)O` [[Et2 Phe^1, Leu^13]pMOT(1-14) amide] (X4-VPIFTYGELQRLQ-NH2), on motilin receptor, the IC50 was 3.89 nM. For the same molecule, the pEC50 in experiment [1] is 7.54.
Regarding `CC[C@H](C)[C@H](NC(=O)[C@@H]1CCCN1C(=O)[C@@H](NC(=O)[C@H](Cc1ccccc1)[N+](C)(C)C)C(C)C)C(=O)N[C@@H](Cc1ccccc1)C(=O)N[C@H](C(=O)N[C@@H](Cc1ccc(O)cc1)C(=O)NCC(=O)N[C@@H](CCC(=O)O)C(=O)N[C@@H](CC(C)C)C(=O)N[C@@H](CCC(N)=O)C(=O)N[C@@H](CCCNC(=N)N)C(=O)N[C@@H](CC(C)C)C(=O)N[C@@H](CCC(N)=O)C(=O)O)[C@@H](C)O` [[Me3 N^+ Phe^1, Leu^13]pMOT(1-14), [1-N,N,N-Trimethylphenylalanine, 13-leucine]motilin-(1-14)-peptide (Porcine) Bis-trifluoroacetate Salt] (X1-VPIFTYGELQRLQ-OH), on motilin receptor, the IC50 is 3.55 nM. Also, in experiment [1], the negative logarithm of the EC50 (pEC50) came out at 7.69.
Taken in the same sequence, the figures for `CC[C@H](C)[C@H](NC(=O)[C@@H]1CCCN1C(=O)[C@@H](NC(=O)[C@@H](N)Cc1ccccc1)C(C)C)C(=O)N[C@@H](Cc1ccccc1)C(=O)N[C@H](C(=O)N[C@@H](Cc1ccccc1)C(=O)NCC(=O)N[C@@H](CCC(=O)O)C(=O)N[C@@H](CC(C)C)C(=O)N[C@@H](CCC(N)=O)C(=O)N[C@H](CCCNC(=N)N)C(=O)N[C@@H](CC(C)C)C(=O)N[C@@H](CCC(N)=O)C(=O)O)[C@@H](C)O` [[Phe^7, D-Arg^12, Leu^13]pMOT(1-14)] (H-FVPIFTFGELQ[dR]LQ-OH) were 8.51 nM and 6.92.

For orientation: pEC50 means −log10 of the EC50, conventionally taken in molar units.
